Assay results: article PMC10222686, “Synthesis and Molecular Docking Studies of Alkoxy- and Imidazole-Substituted Xanthones as α-Amylase and α-Glucosidase Inhibitors” (Molecules, 2023)

Columns and labels:
[1] = molecular target: α-Glucosidase; conditions: Figure 1; reference not given; cited from earlier work
[2] = molecular target: T1, α-amylase (Sus scrofa, UniProt P00690); assay: α-Amylase inhibition assay (starch/DNS); format: biochemical, porcine; conditions: mean ± SD, n = 4; for inhibition at 100 µM: NI = no inhibition; for IC50: compounds precipitate at 200 µM;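 on all read-outs here: reducing sugar measured by DNS colour at 540 nm, inhibition relative to enzyme reaction lacking test compound, blank without enzyme subtracted for background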
T1 construct: purchased Sigma-Aldrich; host or cells: porcine pancreas
T1 sequence (P00690 16-511): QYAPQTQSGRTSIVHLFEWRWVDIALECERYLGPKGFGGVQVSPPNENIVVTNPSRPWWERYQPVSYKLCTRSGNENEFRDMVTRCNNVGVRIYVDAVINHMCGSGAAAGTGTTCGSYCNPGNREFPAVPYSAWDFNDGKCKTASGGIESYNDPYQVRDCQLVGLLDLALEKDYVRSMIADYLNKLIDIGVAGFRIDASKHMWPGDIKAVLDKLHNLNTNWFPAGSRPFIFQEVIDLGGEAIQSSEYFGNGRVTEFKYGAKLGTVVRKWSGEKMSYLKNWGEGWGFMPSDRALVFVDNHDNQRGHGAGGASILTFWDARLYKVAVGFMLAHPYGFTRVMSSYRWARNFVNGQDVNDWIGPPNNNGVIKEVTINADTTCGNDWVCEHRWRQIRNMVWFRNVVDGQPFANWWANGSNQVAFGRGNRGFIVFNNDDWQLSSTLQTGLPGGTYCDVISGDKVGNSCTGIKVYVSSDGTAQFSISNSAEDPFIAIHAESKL
Protocol: α-Amylase inhibitory activity was quantified according to the method developed by Chokki et al., with some modifications [65]. […] Finally, 100 µL of 3,5-dinitrosalicylic acid (DNS) was added and heated at 100 °C for 20 min, and absorbance was then read at 540 nm in a microplate reader (Epoch, BioTek®). The reaction system without any test compound was used as the control, and the system without α-amylase served as a blank for correcting background absorbance. The percentage of α-amylase inhibition was calculated for each sample with Equation (2):(2) % inhibition=Control absorbance−sample absorbance/Control absorbance×100
(§2) All measurements were performed in quadruplicate and the values are expressed as the mean ± standard deviation.

[3] = system: α-glucosidase; assay: Enzymatic kinetic study on α-glucosidase (Lineweaver–Burk); format: biochemical, Saccharomyces cerevisiae; conditions: for Type of inhibition of α-glucosidase: Lineweaver–Burk plots; for Ki: p-NPG 0.5–5.0 mM, nonlinear regression
Protocol: The X-axis values represent the reciprocal for the α-glucosidase substrate, p-nitrophenyl-α-D-glucopyranoside (p-NPG), while for the α-amylase substrate they represent starch, thus being 1/(starch). The Y-axis values are the reciprocal of the reaction velocity (Vo), thus being 1/Vo.
(§1) To explore the type of enzyme inhibition, kinetic studies were carried out with α-glucosidase and α-amylase using a methodology such as that described in the inhibitory activity assays. The alkoxy-substituted xanthones were evaluated at four different concentrations according to their IC50. Various concentrations of substrates were used for each of the enzymes in the range of 0.5–5.0 mM for p-NPG in α-glucosidase and 0.1–1.0% for α-amylase. The type of inhibition for each test compound was determined by utilizing double reciprocal plots. Inhibition constants (KI) were calculated from substrate versus reaction rate curves using nonlinear regression of the enzyme inhibition kinetic function.

[4] = molecular target: T1, α-amylase; assay: Enzymatic kinetic study on α-amylase (Lineweaver–Burk); format: biochemical, porcine; conditions: for Type of inhibition of α-amylase: Lineweaver–Burk plots; for Ki: starch 0.1–1.0%, nonlinear regression
Protocol: These KI values indicate that 6c has greater affinity for the enzyme.
as §1

[5] = system: α-glucosidase; assay: α-Glucosidase inhibition assay (p-NPG substrate); format: biochemical, Saccharomyces cerevisiae; conditions: mean ± SD, n = 4
Protocol: The inhibitory activity of the compounds on α-glucosidase inhibition was quantified according to the method described by Salehi et al., with slight modifications [64]. A reaction was prepared by mixing 20 µL α-glucosidase solution (0.5 unit/mL), 120 µL 0.1 M phosphate buffer (pH 6.9), and 10 µL of the samples at concentrations from 400 µM to 4.0 µM. The solution was incubated in a 96-well microplate at 37 °C for 15 min. The enzymatic reaction was initiated by adding 20 µL of 5 mM p-NPG solution to 0.1 M phosphate buffer (pH 6.9), followed by incubation at 37 °C for 15 min. The reaction was stopped by adding 80 µL of 0.2 M sodium carbonate solution, and absorbance was read at 405 nm in a microplate reader (Epoch®, BioTek Instrument, Winooski, EUA). The reaction system without any test compounds was used as control, whereas the system without α-glucosidase served as blank for correcting background absorbance. The rate of α-glucosidase inhibition exerted by each sample was calculated with Equation (1):(1) % inhibition=Control absorbance−sample absorbance/Control absorbance×100
as §2

[6] = DPPH radical scavenging assay; conditions: mean ± SD, n = 4
Protocol: The scavenging of free radicals by the synthesized compounds was assessed based on the previously reported DPPH radical assay, with slight modifications. The reaction mixture consisted of 50 µL of compound in DMSO at various concentrations (from 2.5 mM to 0.2 mM) and 150 µL of DPPH solution at 133.33 µM in absolute ethanol. The reaction components were added at a ratio of 1:3 (v/v). The mixture was incubated at 37 °C for 30 min before absorbance was read at 517 nm using a microplate reader (Epoch, BioTek®). Butylhydroxytoulene (BHT) served as the positive control. Scavenging capacity (%) is expressed as the percentage decrease in DPPH. SC% = [(Acontrol − Atest)/Acontrol] × 100 where Acontrol is absorbance of the DPPH solution (control) and Atest is the absorbance of the solution of DPPH and one of the compounds.

In the case of `Clc1ccc(-c2nc(-c3ccccc3)n3c2-c2[nH]c4ccccc4c2CC3)cc1` [Carbazole-imidazole], the IC50 [1] is given as 81 µM.

With `COc1cc2oc3ccccc3c(=O)c2cc1OCC(=O)c1ccc(Cl)cc1` [Compound 6c, 2-(2-(4-Chlorophenyl)-2-oxoethoxy)-3-methoxy-9H-xanthen-9-one] the inhibition at 100 µM [2] was 64.8 ± 0.15%, the IC50 [2] was 76.7 ± 0.03 µM and the “Type of inhibition of α-glucosidase” value [3] was “mixed mode”. For the same compound, the Ki [3] was 21.5 µM, the melting point was 175 to 176 °C and the “Type of inhibition of α-amylase” value [4] was “competitive type of inhibitor”. For the same compound, the Ki [4] was 63.2 µM, the “α-Glucosidase Inhibition (%) at 400 µM” value [5] was 92.6 ± 0.11% and the IC50 [5] was 16 ± 0.03 µM. The “% DPPH Scavenging Activity (2.5 mM)” value [6] was 8.7 ± 0.67 ^G %.

In the case of `C=CCc1c(OCCCCBr)c(OC)cc2oc3ccccc3c(=O)c12` [Compound 9b, 1-Allyl-2-(4-bromobutoxy)-3-methoxy-9H-xanthen-9-one], the inhibition at 100 µM [2] is reported as 3.87 ± 0.11%, the IC50 [2] is reported as greater than 200 µM and the “Type of inhibition of α-glucosidase” value [3] is reported as “mixed mode”. The Ki [3] was 1.25 µM, the “α-Glucosidase Inhibition (%) at 400 µM” value [5] was 96.3 ± 0.2% and the IC50 [5] was 4 ± 0.007 µM. The “% DPPH Scavenging Activity (2.5 mM)” value [6] was 17.6 ± 1.17 ^D %.

For `COc1cc2oc3ccccc3c(=O)c2cc1OCCCCn1ccnc1-c1ccc(Cl)cc1` [Compound 10c, 2-(4-(2-(4-Chlorophenyl)-1H-imidazol-1-yl)butoxy)-3-methoxy-9H-xanthen-9-one], the inhibition at 100 µM [2] was 99.5 ± 0.1%, the IC50 [2] was 5.4 ± 0.07 µM and the “Type of inhibition of α-glucosidase” value [3] was “mixed mode”. The Ki [3] was 139 µM, the “Type of inhibition of α-amylase” value [4] was “mixed-type inhibitor” and the Ki [4] was 2.2 µM. For the same compound, the “α-Glucosidase Inhibition (%) at 400 µM” value [5] was 95.1 ± 0.15%, the IC50 [5] was 232.7 ± 0.11 µM and the “% DPPH Scavenging Activity (2.5 mM)” value [6] was 11.6 ± 1.54 ^F,G %.

For `O=c1c2c(O)cc(O)cc2oc2cc(O)c(-c3c(O)ccc4ccc(O)cc34)c(O)c12` [Dihydroxynaphtalenyl-xanthone], the IC50 [1] is listed as 47.6 µM.

For `Cc1cc(C)n(-c2ccc(-n3c(-c4ccccc4)nc(-c4ccccc4)c3-c3ccccc3)cc2)n1` [Imidazole-pyrazole], the IC50 [1] is given as 105 µM.

In the case of `COc1c(O)cc2oc3cc(O)c(CC=C(C)C)c(O)c3c(=O)c2c1CC=C(C)C` [α-Mangostin, α-mangostin], the IC50 [1] is given as 5 µM.
